This note sets out measurements from the Kinase Knowledgebase extract (Sharma et al. 2016).

One assay addresses PIK3CB (Human) (UniProt P42338). Description: Assessment of PIK3CB Kinase Activity.
Another assay addresses PIK3CG (human) (UniProt P48736). Description: Assessment of PIK3CG Kinase Activity.
The target of assay [1] is PIK3CD (Human) (UniProt O00329). Description: Assessment of PIK3CD Kinase Activity in RAJI Cells.
Assay [2] has the same target. Description: Assessment of PIK3CD Kinase Activity.
Assay [3] has as its target PIK3CA (human) (UniProt P42336). Description: Assessment of PIK3CA Kinase Activity.
Assay [4] shares this target. Description: Assessment of PIK3CA Kinase Activity in SKOV-3 Cells.

Molecules are shown by their SMILES.

PIK3CG (human), sequence (P48736 whole entry, looked up): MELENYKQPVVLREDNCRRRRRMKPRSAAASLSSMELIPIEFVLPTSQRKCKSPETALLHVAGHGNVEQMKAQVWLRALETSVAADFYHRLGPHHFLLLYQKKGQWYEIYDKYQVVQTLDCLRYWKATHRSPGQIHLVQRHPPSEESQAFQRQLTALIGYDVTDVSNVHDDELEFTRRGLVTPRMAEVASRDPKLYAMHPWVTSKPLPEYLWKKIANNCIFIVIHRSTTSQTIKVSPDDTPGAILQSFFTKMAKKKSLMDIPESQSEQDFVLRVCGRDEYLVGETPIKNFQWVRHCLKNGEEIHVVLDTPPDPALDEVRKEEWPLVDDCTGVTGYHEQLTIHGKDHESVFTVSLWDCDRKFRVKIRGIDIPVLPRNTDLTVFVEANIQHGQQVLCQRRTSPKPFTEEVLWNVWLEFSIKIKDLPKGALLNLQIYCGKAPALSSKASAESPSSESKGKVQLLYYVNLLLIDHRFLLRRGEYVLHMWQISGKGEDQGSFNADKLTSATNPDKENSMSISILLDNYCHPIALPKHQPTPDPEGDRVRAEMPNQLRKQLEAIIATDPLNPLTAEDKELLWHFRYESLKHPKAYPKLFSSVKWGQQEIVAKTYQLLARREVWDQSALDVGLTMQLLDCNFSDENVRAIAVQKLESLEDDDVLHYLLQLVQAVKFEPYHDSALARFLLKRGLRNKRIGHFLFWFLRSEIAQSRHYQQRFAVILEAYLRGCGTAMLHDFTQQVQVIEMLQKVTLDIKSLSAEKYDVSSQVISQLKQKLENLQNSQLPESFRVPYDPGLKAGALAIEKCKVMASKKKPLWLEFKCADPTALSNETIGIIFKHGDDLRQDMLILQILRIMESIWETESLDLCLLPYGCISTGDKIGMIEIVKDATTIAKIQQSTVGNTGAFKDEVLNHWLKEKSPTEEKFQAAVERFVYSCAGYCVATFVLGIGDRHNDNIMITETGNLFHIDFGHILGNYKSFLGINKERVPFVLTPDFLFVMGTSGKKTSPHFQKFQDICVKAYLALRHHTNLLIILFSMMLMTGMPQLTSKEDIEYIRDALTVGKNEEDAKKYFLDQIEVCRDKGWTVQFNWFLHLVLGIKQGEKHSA
PIK3CA (human), sequence (P42336 whole entry, looked up): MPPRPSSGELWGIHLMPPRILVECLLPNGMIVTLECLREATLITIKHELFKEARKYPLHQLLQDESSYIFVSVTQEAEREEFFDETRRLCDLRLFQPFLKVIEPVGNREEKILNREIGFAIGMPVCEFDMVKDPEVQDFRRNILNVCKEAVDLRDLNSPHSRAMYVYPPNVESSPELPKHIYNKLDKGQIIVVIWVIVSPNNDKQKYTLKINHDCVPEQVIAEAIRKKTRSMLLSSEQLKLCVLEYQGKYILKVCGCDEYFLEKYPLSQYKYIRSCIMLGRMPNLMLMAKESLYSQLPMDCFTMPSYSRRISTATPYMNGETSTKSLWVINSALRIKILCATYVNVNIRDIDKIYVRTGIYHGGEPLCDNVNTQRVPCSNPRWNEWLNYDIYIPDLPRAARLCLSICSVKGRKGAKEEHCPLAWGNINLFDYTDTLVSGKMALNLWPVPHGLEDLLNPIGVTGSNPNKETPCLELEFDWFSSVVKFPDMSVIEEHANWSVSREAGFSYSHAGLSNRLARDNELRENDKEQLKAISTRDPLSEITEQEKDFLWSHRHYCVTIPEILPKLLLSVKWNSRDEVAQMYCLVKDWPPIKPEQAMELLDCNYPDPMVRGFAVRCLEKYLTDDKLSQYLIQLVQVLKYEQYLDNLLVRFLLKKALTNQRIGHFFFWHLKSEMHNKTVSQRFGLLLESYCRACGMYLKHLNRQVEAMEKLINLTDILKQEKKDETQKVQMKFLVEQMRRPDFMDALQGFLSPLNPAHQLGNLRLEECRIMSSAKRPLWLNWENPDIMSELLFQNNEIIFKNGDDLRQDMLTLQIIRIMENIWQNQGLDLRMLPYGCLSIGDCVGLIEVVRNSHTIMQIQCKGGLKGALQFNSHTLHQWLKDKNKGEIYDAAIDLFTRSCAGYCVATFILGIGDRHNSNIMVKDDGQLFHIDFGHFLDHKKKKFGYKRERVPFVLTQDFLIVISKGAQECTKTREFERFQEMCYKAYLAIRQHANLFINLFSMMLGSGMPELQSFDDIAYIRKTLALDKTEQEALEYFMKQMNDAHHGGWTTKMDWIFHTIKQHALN
PIK3CB (Human), sequence (P42338 whole entry, looked up): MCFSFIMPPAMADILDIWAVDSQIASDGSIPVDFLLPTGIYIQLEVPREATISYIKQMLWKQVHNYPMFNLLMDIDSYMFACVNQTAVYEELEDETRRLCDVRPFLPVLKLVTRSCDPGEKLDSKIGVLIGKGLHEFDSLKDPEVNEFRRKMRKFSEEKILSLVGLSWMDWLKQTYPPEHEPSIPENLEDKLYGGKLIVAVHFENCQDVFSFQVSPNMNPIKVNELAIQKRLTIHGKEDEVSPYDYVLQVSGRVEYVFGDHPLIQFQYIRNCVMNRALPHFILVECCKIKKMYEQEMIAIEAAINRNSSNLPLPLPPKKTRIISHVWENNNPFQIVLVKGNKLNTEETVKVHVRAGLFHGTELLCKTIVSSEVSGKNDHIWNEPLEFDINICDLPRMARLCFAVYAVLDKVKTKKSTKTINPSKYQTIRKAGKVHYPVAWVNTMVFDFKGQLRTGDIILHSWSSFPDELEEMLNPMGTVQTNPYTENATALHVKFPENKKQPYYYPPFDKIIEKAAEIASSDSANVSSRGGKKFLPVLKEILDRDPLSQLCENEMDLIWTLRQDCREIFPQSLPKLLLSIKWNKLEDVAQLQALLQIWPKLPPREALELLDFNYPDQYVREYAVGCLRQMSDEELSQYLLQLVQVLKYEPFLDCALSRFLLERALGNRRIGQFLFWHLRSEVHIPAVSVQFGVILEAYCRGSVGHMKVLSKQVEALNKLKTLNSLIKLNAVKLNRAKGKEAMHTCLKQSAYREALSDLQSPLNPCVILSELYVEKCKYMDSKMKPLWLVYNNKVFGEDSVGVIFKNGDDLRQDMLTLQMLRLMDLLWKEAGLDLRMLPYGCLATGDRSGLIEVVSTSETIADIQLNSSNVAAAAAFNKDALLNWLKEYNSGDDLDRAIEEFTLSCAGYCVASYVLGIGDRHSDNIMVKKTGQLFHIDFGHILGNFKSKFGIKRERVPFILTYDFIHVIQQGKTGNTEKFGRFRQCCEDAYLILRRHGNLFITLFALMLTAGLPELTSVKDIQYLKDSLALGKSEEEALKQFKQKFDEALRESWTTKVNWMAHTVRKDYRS
PIK3CD (Human), sequence (O00329 whole entry, looked up): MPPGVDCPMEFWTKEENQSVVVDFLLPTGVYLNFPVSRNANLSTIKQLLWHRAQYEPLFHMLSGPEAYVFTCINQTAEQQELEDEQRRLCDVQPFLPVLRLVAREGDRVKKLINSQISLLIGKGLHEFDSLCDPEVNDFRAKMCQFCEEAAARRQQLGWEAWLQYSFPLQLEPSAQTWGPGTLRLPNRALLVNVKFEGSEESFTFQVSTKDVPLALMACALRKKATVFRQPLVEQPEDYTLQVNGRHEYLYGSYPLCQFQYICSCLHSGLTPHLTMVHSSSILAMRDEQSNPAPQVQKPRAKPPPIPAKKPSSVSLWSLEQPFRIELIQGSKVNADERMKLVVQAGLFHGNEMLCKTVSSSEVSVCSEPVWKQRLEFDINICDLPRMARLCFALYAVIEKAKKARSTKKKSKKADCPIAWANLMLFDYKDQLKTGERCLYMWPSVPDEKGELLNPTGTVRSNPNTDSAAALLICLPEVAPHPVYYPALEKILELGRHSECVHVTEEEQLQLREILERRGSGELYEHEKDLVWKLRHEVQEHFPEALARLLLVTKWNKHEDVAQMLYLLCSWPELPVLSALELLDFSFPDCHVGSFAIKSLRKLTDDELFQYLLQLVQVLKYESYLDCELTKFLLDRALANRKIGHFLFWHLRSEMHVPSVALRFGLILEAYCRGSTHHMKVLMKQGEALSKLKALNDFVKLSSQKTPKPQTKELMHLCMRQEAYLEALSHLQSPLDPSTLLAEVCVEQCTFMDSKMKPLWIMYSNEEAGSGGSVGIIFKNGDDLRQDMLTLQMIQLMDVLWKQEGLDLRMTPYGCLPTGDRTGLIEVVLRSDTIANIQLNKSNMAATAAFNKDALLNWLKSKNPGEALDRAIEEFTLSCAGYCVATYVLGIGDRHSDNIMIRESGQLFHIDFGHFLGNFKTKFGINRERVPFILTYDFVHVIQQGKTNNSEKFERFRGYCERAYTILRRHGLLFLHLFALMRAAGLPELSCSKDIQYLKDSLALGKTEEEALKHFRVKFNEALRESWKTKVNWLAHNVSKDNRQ

A word on the IC50: it is the midpoint of a concentration-inhibition curve. Low values mean greater potency in that assay, high ones weaker potency in that assay. `C[C@H](Nc1ncnc2cccnc12)c1cc2cccc(-c3cnn(C)c3)c2c(=O)n1-c1ccccc1`: the IC50 at PIK3CB (Human) was > 10000 nM; against PIK3CG (human), < 100 nM; on PIK3CD (Human) [1], < 100 nM; on PIK3CD (Human) [2], < 100 nM.
`C[C@H](Nc1ncnc2[nH]cnc12)c1cc2cccc(C(F)(F)F)c2c(=O)n1-c1cccc(F)c1`: the IC50 against PIK3CG (human), on PIK3CD (Human) [1] and against PIK3CD (Human) [2] was < 100 nM each time.
`C[C@H](Nc1ncnc2cnccc12)c1cc2cccc(Cl)c2c(=O)n1-c1ccccc1`: the IC50 on PIK3CB (Human), on PIK3CG (human), against PIK3CD (Human) [2] and on PIK3CA (human) [3] was > 10000 nM throughout.
With `CC(C)n1c([C@H](C)Nc2ncnc3cccnc23)cc2cccc(-c3ccc(=O)n(C)c3)c2c1=O`, the IC50 against PIK3CD (Human) [1] is < 100 nM; against PIK3CD (Human) [2], 100 to 1000 nM.
Take `C[C@H](Nc1nc(Cl)nc2cccnc12)c1cc2cccc(-c3cnn(C)c3)c2c(=O)n1-c1cccc(F)c1`: the IC50 is > 10000 nM against PIK3CB (Human), 100 to 1000 nM on PIK3CG (human), 100 to 1000 nM on PIK3CD (Human) [2] and > 10000 nM against PIK3CA (human) [3].
Take `C[C@H](Nc1ccnn2ccnc12)c1cc2cccc(Cl)c2c(=O)n1-c1ccccc1`: the IC50 against PIK3CB (Human) was < 100 nM; against PIK3CG (human) it was < 100 nM; against PIK3CD (Human) [2], < 100 nM; against PIK3CA (human) [3] it was 100 to 1000 nM.
As to `COc1ncc(-c2cccc3cc([C@H](C)Nc4nc(O)nc5cccnc45)n(-c4ccccc4)c(=O)c23)cn1`, the IC50 at PIK3CB (Human), against PIK3CG (human), at PIK3CD (Human) [2] and against PIK3CA (human) [3] was > 10000 nM throughout.
`C[C@H](Nc1ccnc2ccnn12)c1cc2scc(-c3cnn(C)c3)c2c(=O)n1-c1ccccc1`: the IC50 is > 10000 nM on PIK3CB (Human), 100 to 1000 nM at PIK3CG (human), 100 to 1000 nM at PIK3CD (Human) [2] and > 10000 nM at PIK3CA (human) [3].
In the case of `COc1ncc(-c2cccc3cc([C@H](C)Nc4nc(OC)nc5cccnc45)n(-c4ccccc4)c(=O)c23)cn1`, the IC50 against PIK3CB (Human), against PIK3CG (human), against PIK3CD (Human) [2] and against PIK3CA (human) [3] was > 10000 nM in each case.
On to `C[C@H](Nc1ncnc2[nH]cc(C#N)c12)c1cc2cccc(C(F)(F)F)c2c(=O)n1-c1ccccc1`, for which the IC50 against PIK3CB (Human) is 100 to 1000 nM; at PIK3CG (human) it was < 100 nM; at PIK3CD (Human) [2], < 100 nM; on PIK3CA (human) [3] it was > 10000 nM.
For `COc1ncc(-c2cccc3cc([C@H](C)Nc4nc(N)nc5cccnc45)n(-c4cccc(F)c4)c(=O)c23)cn1`, the IC50 at PIK3CB (Human) is > 10000 nM; at PIK3CG (human), < 100 nM; at PIK3CD (Human) [2] it was < 100 nM; at PIK3CA (human) [3], > 10000 nM.
Consider `CNc1cccc2cc([C@H](C)Nc3nc(N)nc4cccnc34)n(-c3ccccc3)c(=O)c12`, for which the IC50 at PIK3CB (Human) was > 10000 nM; against PIK3CG (human) it was < 100 nM; against PIK3CD (Human) [2], 100 to 1000 nM; on PIK3CA (human) [3], > 10000 nM.
As for `C[C@H](Nc1ncnc2cccnc12)c1cc2cccc(Cl)c2c(=O)n1CCN1CCCC1`, the IC50 against PIK3CB (Human) is 100 to 1000 nM; against PIK3CG (human) it was 100 to 1000 nM; at PIK3CD (Human) [2] it was < 100 nM; against PIK3CA (human) [3], > 10000 nM.
In the case of `C[C@H](Nc1nc(Cl)nc2cccnc12)c1cc2cccc(-c3cnn(C)c3)c2c(=O)n1C1CC1`, the IC50 was > 10000 nM on PIK3CB (Human), 100 to 1000 nM at PIK3CG (human), 100 to 1000 nM against PIK3CD (Human) [2] and > 10000 nM at PIK3CA (human) [3].
With `C[C@H](Nc1cc(Cl)nn2ccnc12)c1cc2cccc(-c3cnn(C)c3)c2c(=O)n1-c1cccc(F)c1`, the IC50 on PIK3CB (Human) is > 10000 nM; at PIK3CG (human), 100 to 1000 nM; against PIK3CD (Human) [2], 100 to 1000 nM; against PIK3CA (human) [3], > 10000 nM.
On to `CCOC(=O)c1cnc(N[C@@H](C)c2cc3cccc(-c4ccnc(OC)c4)c3c(=O)n2-c2ccccc2)nc1N`, for which the IC50 against PIK3CB (Human), at PIK3CG (human), on PIK3CD (Human) [2] and on PIK3CA (human) [3] was > 10000 nM throughout.
For the molecule `COc1ncc(-c2cccc3nc([C@H](C)Nc4nc(N)nc5cccnc45)n(-c4ccccc4)c(=O)c23)cn1`, the IC50 on PIK3CB (Human) is > 10000 nM; on PIK3CG (human) it was < 100 nM; against PIK3CD (Human) [1], < 100 nM; on PIK3CD (Human) [2], < 100 nM.
For `C[C@H](NCc1cccnc1N)c1cc2cccc(Cl)c2c(=O)n1-c1ccccc1`, the IC50 at PIK3CB (Human), against PIK3CG (human), against PIK3CD (Human) [2] and against PIK3CA (human) [3] was > 10000 nM throughout.
As for `C[C@H](Nc1nc(N)nc2[nH]cnc12)c1cc2cccc(C(F)(F)F)c2c(=O)n1-c1ccccc1`, the IC50 is < 100 nM at PIK3CB (Human), < 100 nM at PIK3CG (human), < 100 nM on PIK3CD (Human) [2] and 100 to 1000 nM against PIK3CA (human) [3].
Regarding `Cc1ncc(-c2cccc3cc([C@H](C)Nc4ncnc5cccnc45)n(-c4ccccc4)c(=O)c23)cn1`, the IC50 was > 10000 nM against PIK3CB (Human), < 100 nM at PIK3CG (human), < 100 nM at PIK3CD (Human) [2] and > 10000 nM at PIK3CA (human) [3].
Turning to `C[C@H](Nc1cc(Cl)ncc1C(N)=O)c1cc2cccc(Cl)c2c(=O)n1-c1ccccc1`, the IC50 on PIK3CB (Human) was > 10000 nM; on PIK3CG (human), 100 to 1000 nM; against PIK3CD (Human) [2], 100 to 1000 nM; on PIK3CA (human) [3], > 10000 nM.
Take `C[C@H](Nc1cc(N)ncc1C(N)=O)c1cc2cccc(Cl)c2c(=O)n1-c1ccccc1`: the IC50 at PIK3CB (Human) is < 100 nM; on PIK3CG (human) it was < 100 nM; against PIK3CD (Human) [2], < 100 nM; on PIK3CA (human) [3], 100 to 1000 nM.
`COc1ncc(-c2cccc3cc([C@H](C)Nc4cc(N)nc5ccnn45)n(-c4ccccc4)c(=O)c23)cn1`: the IC50 against PIK3CB (Human) is > 10000 nM; at PIK3CG (human), 100 to 1000 nM; against PIK3CD (Human) [2], < 100 nM; against PIK3CA (human) [3] it was > 10000 nM.
Regarding `Cc1ncc(-c2cccc3cc([C@H](C)Nc4nc(N)nc5cccnc45)n(-c4ccccc4)c(=O)c23)cn1`, the IC50 against PIK3CB (Human) is > 10000 nM; on PIK3CG (human), < 100 nM; on PIK3CD (Human) [2] it was < 100 nM; at PIK3CA (human) [3], > 10000 nM.
`C[C@H](Nc1ncnc2cc(F)ccc12)c1cc2cccc(Cl)c2c(=O)n1-c1ccccc1`: the IC50 against PIK3CB (Human), at PIK3CG (human), against PIK3CD (Human) [2] and against PIK3CA (human) [3] was > 10000 nM in each case.
Take `C[C@H](Nc1nc(N)nc2cccnc12)c1nc2cccc(-c3cnn(C)c3)c2c(=O)n1-c1ccccc1`: the IC50 is > 10000 nM on PIK3CB (Human); < 100 nM at PIK3CG (human); < 100 nM at PIK3CD (Human) [1]; < 100 nM at PIK3CD (Human) [2]; 100 to 1000 nM at PIK3CA (human) [4].
Turning to `Cc1ncc(-c2cccc3nc([C@H](C)Nc4nc(N)nc5cccnc45)n(-c4ccccc4)c(=O)c23)cn1`, the IC50 at PIK3CB (Human) is > 10000 nM; against PIK3CG (human), < 100 nM; against PIK3CD (Human) [1], < 100 nM; on PIK3CD (Human) [2], < 100 nM.
As for `C[C@@H](c1cc2cccc(Cl)c2c(=O)n1-c1ccccc1)n1c(=O)[nH]c2cnc(N)nc21`, the IC50 on PIK3CB (Human), against PIK3CG (human), on PIK3CD (Human) [2] and on PIK3CA (human) [3] was > 10000 nM each time.
`C[C@H](Nc1ncc(C(F)(F)F)c(N)n1)c1cc2cccc(Cl)c2c(CCN2CCOCC2)n1`: the IC50 against PIK3CB (Human), on PIK3CG (human), at PIK3CD (Human) [2] and on PIK3CA (human) [3] was > 10000 nM in each case.
Turning to `C[C@H](Nc1nc(N)nc2cccnc12)c1cc2cccc(-c3cnc4[nH]ccc4c3)c2c(=O)n1-c1ccccc1`, the IC50 on PIK3CB (Human) is 100 to 1000 nM; against PIK3CG (human) it was < 100 nM; on PIK3CD (Human) [2], < 100 nM; against PIK3CA (human) [3], 100 to 1000 nM.
For the molecule `C[C@H](Nc1ncnc2scnc12)c1cc2cccc(C(F)(F)F)c2c(=O)n1-c1ccccc1`, the IC50 on PIK3CB (Human) was < 100 nM; at PIK3CG (human), < 100 nM; against PIK3CD (Human) [2], < 100 nM; against PIK3CA (human) [3], 100 to 1000 nM.
`C[C@H](Nc1nc(Cl)nc2cccnc12)c1cc2cccc(-c3cnn(C)c3)c2c(=O)n1-c1ccccc1`: the IC50 against PIK3CB (Human) is > 10000 nM; against PIK3CG (human), < 100 nM; against PIK3CD (Human) [2] it was 100 to 1000 nM; against PIK3CA (human) [3], > 10000 nM.
In the case of `C[C@H](Nc1ncnc2cc(F)c(F)cc12)c1cc2cccc(Cl)c2c(=O)n1-c1ccccc1`, the IC50 against PIK3CB (Human), against PIK3CG (human), at PIK3CD (Human) [2] and against PIK3CA (human) [3] was > 10000 nM throughout.
`C[C@H](Nc1nccc2nccn12)c1cc2cccc(Cl)c2c(=O)n1-c1ccccc1`: the IC50 against PIK3CB (Human), against PIK3CG (human), against PIK3CD (Human) [2] and against PIK3CA (human) [3] was > 10000 nM each time.
Consider `C[C@H](Nc1nc(O)nc2cccnc12)c1cc2cccc(C(F)(F)F)c2c(=O)n1-c1cccc(F)c1`, for which the IC50 at PIK3CB (Human), on PIK3CG (human), against PIK3CD (Human) [2] and against PIK3CA (human) [3] was > 10000 nM each time.
As for `C[C@H](Nc1ccn2nccc2n1)c1cc2cccc(Cl)c2c(=O)n1-c1ccccc1`, the IC50 at PIK3CB (Human), on PIK3CG (human), against PIK3CD (Human) [2] and on PIK3CA (human) [3] was > 10000 nM each time.
